The text below walks through data of article PMC6467875, “An experimentally validated approach to calculate the blood-brain barrier permeability of small molecules” (Scientific Reports, 2019).

The conditions of data set [1]: source not stated; cited from earlier work.
Data set [2] in a line: Transwell permeability assay with iPSC-derived hBMECs. It counts as in vitro ADME. The settings on record: human, stem-cell derived hBMECs, obtained as part of this work.
Procedure: To validate results from MD simulations, permeabilities for selected molecules were determined using the transwell assay with human induced pluripotent stem cell (iPSC)-derived hBMECs. […] Briefly, hBMECs were sub-cultured onto polyester 12-well transwell inserts with a 0.4 µm pore size (Corning) coated with 1:1 collagen IV (100 µg mL^−1, Sigma) and fibronectin (50 µg mL^−1, Sigma) at a density of 1 × 10^6 cells mL^−1 and allowed to reach confluence for another two days. Permeability experiments were performed only if the transendothelial electrical resistance (TEER) was in excess of 1500 Ω cm^2. Prior to permeability experiments, cells were washed with transport buffer (0.12 M NaCl, 25 mM NaHCO3, 3 mM KCl, 2 mM MgSO4, 2 mM CaCl2, 0.4 mM K2HPO4, 1 mM 4-(2-hydroxyethyl)-1-piperazineethanesulfonic acid (HEPES), and 0.1% human platelet poor derived serum) and 100 µL of the molecule of interest in transport buffer was introduced into the apical well.
Experimentally, solute permeabilities are determined using a transwell assay from the concentrations in the apical (luminal, CL) and basolateral (abluminal, CA) compartments after time t using:10 P=VA⋅CA/(t⋅S⋅CL), where VA is the volume of the basolateral compartment (see Supporting Material for details).
For data set [3] the following is noted: not told; cited from earlier work.
For another data set, the system named is red blood cells. Set-up: method as in Brahm et al. 40. The settings on record: from rate constants km for transport into red blood cells, Papp = km/2; ref Brahm et al. 40; cited from earlier work.
For data set [4] the following is noted: from experiment; ref Atkinson, Berg, 1988; cited from earlier work.
Another data set has as its system MDCKII cells. Also on record: method as in Summerfield et al. 32. The settings on record: transwell, ref Summerfield et al. 32; cited from earlier work.
The subject of the next data set is bovine BMECs. Set-up: method as in Shah et al. 33. The note with it: transwell, ref Shah et al. 33; cited from earlier work.

For `N` [Ammonia], the Dipole moment in data set [1] was 1.47 D. Regarding `Cn1c(=O)c2c(ncn2C)n(C)c1=O` [Caffeine], the Papp A→B in data set [2] is 21 ×10⁻⁶ cm/s. Also, the Dipole moment in data set [1] is given as 3.65 D. Turning to `O=C=O` [Carbon -dioxide, Carbon dioxide], in data set [1], the Dipole moment is reported as 0 D. Besides, the Papp in data set [3] is 1.6 ± 0.4 × 10^−1 cm/s. Take `CCO` [Ethanol]: in the data set with red blood cells, the Papp is 2100 ×10⁻⁶ cm/s. The Dipole moment in data set [1] was 1.69 D.

For the compound `CCC1(C)CC(=O)NC1=O` (stereo not shown) [Ethosuximide], the “Log P, octanol-water partition coefficient” value in data set [4] was 0.38. In the data set on MDCKII cells, the Papp was 9.7 ×10⁻⁶ cm/s. For `OCC(O)CO` [Glycerol], the apparent permeability (Papp) with bovine BMECs was 9.5 ×10⁻⁶ cm/s. Besides, the Dipole moment in data set [1] is 2.56 D.

Regarding `CC(C)O` [Isopropanol], the apparent permeability coefficient (Papp) in the data set on red blood cells is 6500 ×10⁻⁶ cm/s. The Dipole moment in data set [1] is on record as 1.58 D.

One may read the Papp A→B as the apparent permeability from the apical to the basolateral side of a cell layer. High values mean fast passage, low ones slow passage. The term Papp denotes a coefficient for how fast a substance crosses the barrier.
